In patent US8273787B2, “Activated cytotoxic compounds for attachment to targeting molecules for the treatment of mammalian disease conditions” (Onconova Therapeutics, Inc, priority 2006, dated 2012):

Legend:
[1] = tested on: Human breast carcinoma (BT20) cells; assay: nude mouse xenograft model, BT20; assay type: in vivo; conditions: 10 mg/kg by IP injections, Q2Dx3
Experimental: Human breast carcinoma (BT20) cells were injected subcutaneously into female athymic nude mice (ncr/ncr). […] The average tumor volume and body weights were determined on the indicated days.
BT20 cells were injected in female nude mice. The mice (N=5-8) were treated with ON 01500 (Panel A.) at 10 mg/kg by IP injections or Vehicle alone (DMSO) every other day Q2Dx3.

[2] = tested on: 22RV1 prostate carcinoma cells; assay: dose response assay, 22RV1 cells; assay type: cell-based; conditions: Homo sapiens
Experimental: The penultimate precursor to compound ON 14013100 (an NHS-activated prodrug of ON 013100)—ON 13013100—lacks the activating group for conjugation to mAbs, and served as a suitable candidate to test for plasma stability. […] See, FIG. 4 which illustrates a dose response assay comparing ON 013100 to its linked version, ON 013013100. 22RV1 cells were treated with various concentrations of ON 013100 and its linked version […]. […] Current synthetic work is now focusing towards optimizing a variety of parameters (i.e. spacer length and type, mAb conjugation method, etc.) associated with the current result. Future studies will involve the synthesis and evaluation of a diverse collection of ON 01500 and ON 013100 prodrugs with the ultimate goal of improving pharmacokinetics, blood compartment stability, and intratumoral accumulation and drug release. Infra; see, Examples.

[3] = tested on: breast cell lines (SK-BR-3 and BT474 versus lines with lower HER2); assay: sensitivity of breast cell lines by HER2 level; assay type: cell-based; conditions: very high HER2 lines versus lower HER2 lines
Experimental: Certain embodiments of immunoconjugates described herein are targeted to HER2 expressing breast cancer cells. Certain embodiments of immunoconjugates described herein are targeted to multiple myeloma (MM) cell lines expressing the surface antigens CD38 and or CD138. The IC50 value of […] and ON 013100 was determined for a number of breast cell lines as well as a panel of multiple myeloma cell lines expressing varying levels of each antigen and the data are shown in table (4) and table (5), respectively. […] Two cell lines, SK-BR-3 and BT474, known to express very high levels of HER2 are more than 2 fold more sensitive to ON 013100 as compared to the cell lines which express lower levels of HER2. Marx C., et al., Validated High-Throughput Screening of Drug-Like Small Molecules for Inhibitors of ErbB2 Transcription. Assay Drug Dev. Technology 4(3):273-84 (2006); Lostumbo, A., et al., Flow Cytometry: A New Approach For The Molecular Profiling Of Breast Cancer, Exp. and Molecular Pathology 80:46-53 (2006).

[4] = tested on: multiple myeloma cell lines; assay: growth inhibition, multiple myeloma cell lines (panel statement); assay type: cell-based, Human; conditions: statement in words
From the text: Pellat-Deceunynk, C., et al., Human Myeloma Cell Lines As A Tool For Studying The Biology Of Multiple Myeloma: A Reappraisal 18 Years After, Blood 86(10):4001-2 (1995); Gooding, R. P., et al., Phenotypic And Molecular Analysis Of Six Human Cell Lines Derived From Patients With Plasma Cell Dyscrasia, British Journal of Haematology 106:669-688 (1999).

[5] = tested on: prostate cancer cells (DU145); assay: FACS cell cycle and apoptosis, DU145; assay type: cell-based; conditions: 20 nM, treated over 72 hours
Experimental: (§1) Treatment of cancer cells with either of these two compounds will result in a mitotic arrest followed by the onset of apoptosis in a dose dependent manner. FACS analysis of normal and tumor cells treated with ON 01500 and ON 013100. A. Cells treated for 24 hrs with ON 01500. B. Cells treated with ON 013100 (20 nM) and harvested at various time points thereafter. FIG. 6. […] ON 013100 treatment of normal human umbilical vein endothelial cells (HLVECs) results in a similar cell cycle distribution. FIG. 6.B illustrates cells that have been treated over 72 hours. […] This characteristic should greatly increase the “therapeutic window” of the resulting immunoconjugates since there are now two layers of selectivity. The first being the selective binding and release of the cytotoxic compound only in cells expressing the tumor specific antigen, and the innate selectivity of the compounds themselves. This will provide additional protection of the patient if non-selective binding or release occurs.

[6] = tested on: normal human umbilical vein endothelial cells; assay: FACS cell cycle, HUVEC; assay type: cell-based; conditions: HUVECs, 20 nM, treated over 72 hours
Experimental: as §1

| Compound | weight loss or toxicity [1] | IC50 [2] [nM] | fold more sensitive, SK-BR-3 and BT474 compared to cell lines which express lower levels of HER2 [3] | IC50 values, multiple myeloma cell lines [4] | cell cycle distribution and apoptosis (FACS) [5] | cell cycle distribution (FACS) [6] |
| --- | --- | --- | --- | --- | --- | --- |
| COc1cc(OC)c(/C=C/S(=O)(=O)Cc2ccc(OC)c(N)c2)c(OC)c1 [ON 01500, (E)-2,4,6-trimethoxystyryl-4-methoxy-3-aminobenzylsulfone] | without any signs of weight loss or toxicity |  |  |  |  |  |
| COc1cc(OC)c(/C=C/S(=O)(=O)Cc2ccc(OC)c(O)c2)c(OC)c1 [ON 013100, (E)-5-((2,4,6-trimethoxystyrylsulfonyl)methyl)-2-methoxyphenol] |  | 10 | more than 2 fold | nearing picomolar concentrations | G2/M arrest followed by apoptosis in a time dependent manner | arrest in the G1 stage of the cell cycle |
